Broadly, the melting point is the temperature, or range, at which the solid turns liquid.

Structures are written as SMILES.

For the compound `FC(F)(F)c1cc(CO[C@@H]2CCCN(Cc3ccco3)[C@@H]2c2ccccc2)cc(C(F)(F)F)c1` (relative stereo), the melting point was 103 to 104 °C.

In the case of `CCCNc1cccc2c1C(=O)c1cccc(NCCC)c1C2=O`, the melting point was in the range of 153 to 154 °C.

On to `CC1(C)Oc2ccc(S(=O)(=O)c3ccc(C#N)cc3)cc2[C@@H](N2CCCC2=O)[C@@H]1O` (relative stereo), for which the melting point was in the range of 234 to 235 °C.

Compound `COc1ccc2[nH]c(C(=O)C(C)(C)c3ccc(Cl)cc3)cc2c1` came in with a melting point of 177 to 179 °C.

With `CCOC(=O)c1c(C)nn(C)c1S(N)(=O)=O`, the melting point lay in the range of 112 to 113 °C.

As to `CS(=O)(=O)N=c1oc2ccccc2o1`, the melting point was 161 to 163 °C.

`[N-]=[N+]=Nc1ccc(Cl)cc1C(=NO)c1ccccc1` had a melting point of 125 to 132 °C.

`CNC(=O)c1ccc(F)c2c1CC(N(CCCCc1c[nH]c3ccc(F)cc13)CC1CC1)CO2` (stereo not given) had a melting point of 112 °C.

`CC1CC(=O)NN=C1c1ccc(NCCNC(N)=S)c([N+](=O)[O-])c1` (stereo not given) came in with a melting point of 231 to 233 °C.

As to `CCN(CC)C(=O)c1nc(/C=C/c2ccc([N+](=O)[O-])o2)no1`, the melting point lay within 118 to 119 °C.

Turning to `COc1ccc(-c2cc(N)c(Cl)c(C(=O)O)n2)cc1`, the melting point was 192 °C.

`COc1ccc(-c2[nH]c3ccccc3c(=O)c2C(=O)O)cc1` came in with a melting point greater than 300 °C.

In turn, `CCN(CC)c1cccc(-c2ccnc3c(C(=O)c4cccs4)cnn23)c1` registered a melting point of 102 to 104 °C.

The compound `COc1ccc(C(=O)N2CCC(N3C(=O)Cc4ccccc43)CC2)c(OC)c1` yielded a melting point of 88 to 93 °C.

In turn, `Cc1cc(CC2(Cc3cc(C)nc(Cl)c3)c3ccccc3-c3ncccc32)cc(Cl)n1` yielded a melting point of 159 to 160 °C.

`Clc1c2ccccc2nc2c1c(CBr)nn2-c1ccccn1` showed a melting point of 203 to 205 °C.

`CCOC(=O)CCCC(=O)c1ccc(-c2ccc(C)cc2)s1`: the melting point lay within 120 to 121 °C.

Compound `CCCSc1c[nH]nc1C1=CCCN(C)C1` had a melting point of 111 °C.

For `COc1cc2nc3ccc(SC)cc3sc-2cc1=O`, the melting point was in the range of 222 to 224 °C.

Consider `O=c1cc(-c2ccccc2)oc2ncccc12`, for which the melting point is 103 to 105 °C.

`O=[N+]([O-])c1ccc(NN=CCCc2ccc(F)cc2)cc1`: the melting point lay in the range of 125 to 127 °C.

Take `CN(CCOc1ccc(Cn2cc(CCC(=O)O)c(-c3ccccc3)n2)cc1)c1ccccn1`: the melting point lay in the range of 110 to 111 °C.

The compound `NCC1COc2cc(Cl)cc(-c3ccccc3Cl)c2N1` (stereo not given) showed a melting point of 108 °C.

In turn, `CNCCCCN1CC[C@H](NC(=O)c2cc(Cl)c(N)cc2OC)[C@H](OC)C1` (relative stereo) displayed a melting point of 129 °C.

The compound `Nc1nccc(-c2c[nH]c3nccc(OC4CCCCC4)c23)n1` returned a melting point greater than 210 °C.

In turn, `COc1cncnc1N1CCN(C(=O)OC(C)(C)C)CC1C` (stereo not given) gave a melting point of 70 to 72 °C.

Regarding `CCOc1cc(-c2cc(C(F)(F)F)n3ncc(-c4ccnc(C)c4)c3n2)ccc1C(F)(F)F`, the melting point stood at 226 °C.

Compound `CCc1ccccc1N1CCN(C(=S)Nc2nc3ccccc3nc2OC)CC1` returned a melting point of 141 to 143 °C.

`CC(C)n1c(CO)c(-c2ccc(F)cc2)c(-c2ccccc2)c1C(=O)NCCc1cccnc1` had a melting point of 167 to 169 °C.

`CCCOc1ccc(S(=O)(=O)N2CCN(C)CC2)cc1-c1cc2c([nH]1)c(=O)n(C)c(=O)n2CCC` yielded a melting point of 198 °C.

As for `Cc1ccc([N+](=O)[O-])cc1S(=O)(=O)n1ccnc1`, the melting point was 119 to 120 °C.

Take `Cc1c(C)c2c(c(C)c1O)CC(CCO)O2` (racemic): the melting point was 123 to 125 °C.

Regarding `NC(=O)C(Br)c1c(Cl)cc([N+](=O)[O-])cc1Cl` (stereo not given), the melting point was in the range of 195 to 197 °C.

As to `Cc1ccnc(C=Cc2ccccc2)n1`, the melting point fell in the range of 65 to 67 °C.

For `CNc1[nH]c(-c2ccccc2)c(C)c1C#N`, the melting point is 138 to 139 °C.

As for `Cc1ccccc1C(=O)Nc1ccc(C(=O)N2CCCC(C)(O)c3ccccc32)cc1` (stereo not given), the melting point was 204 to 205 °C.

The compound `CNC(=O)Oc1ccc(NC(=O)C(C)Cl)c(C)c1` (stereo not given) showed a melting point of 167 to 170 °C.

`O=S(=O)(Nc1cccc(CCOCc2csc(-c3ccc(F)c(Cl)c3)n2)c1)C(F)(F)F` had a melting point of 141 to 143 °C.

In turn, `CC(C)(C)OC(=O)NCCNc1n[nH]c2ncnc(Nc3cccc(Cl)c3)c12` registered a melting point of 206 to 208 °C.

Compound `O=C(NC1CCN(CCC(O)c2ccc3c(c2)OCCO3)CC1)c1ccccc1` (stereo not given) came in with a melting point of 193 to 197 °C.

As for `Cc1nn(C)c(Cl)c1C(=O)Nc1ccccc1`, the melting point fell in the range of 157 to 159 °C.

On to `Cc1ccccc1-c1ccc2c(c1)CC[C@H]1N(C)C(=O)CC[C@]21C`, for which the melting point lay in the range of 82 to 87 °C.

As to `COC(=O)c1ccc(C(=O)Nc2ccc(C)c(Nc3nc(-c4cccnc4)cs3)c2)cc1`, the melting point came out at 195 °C.

`CCCN(CCC)C(=O)n1cnc(S(=O)(=O)C(C)C)n1` gave a melting point of 61 °C.

For `CNC(=O)c1cc2c(Oc3ccc(C(F)(F)F)cc3)cnc(Cl)c2s1`, the melting point lay in the range of 178 to 179 °C.

In the case of `Cc1cc(-n2cnn(CCC3CC3)c2=O)sc1C(=O)NCc1cccnc1`, the melting point lay within 148 to 150 °C.

`CCc1cc(C(=O)c2ccccc2Cl)c(-n2c(C)nnc2CNC(=O)/C=C/c2ccccc2)s1` registered a melting point of 150 to 151 °C.

Consider `COc1cc(C)cc2nc(S(=O)(=O)Nc3cc(C)cnc3F)nn12`, for which the melting point was in the range of 262 to 264 °C.

As to `Cc1ccccc1NC(=O)c1ccccc1C(c1ccc(O)cc1)c1ccc(O)cc1`, the melting point was in the range of 267 to 269 °C.

Compound `CCOC(=O)C(=Cc1ccc(F)cc1)C(C)=O` registered a melting point of 80 to 82 °C.

Take `O=C1c2cccc(NC(=S)Nc3ncccn3)c2C2CCCCN12` (stereo not given): the melting point worked out at 212 °C.

Compound `COP1(=O)CC(O)C(Cl)C1` (stereo not given) gave a melting point of 82 °C.

`CCOC(=O)CCCOc1ccc([N+](=O)[O-])c(C=C2C(=O)NC(=O)N2C)c1` returned a melting point of 161 to 163 °C.

`CCS(=O)(=O)NC(=O)c1cccc(N)c1`: the melting point lay in the range of 129 to 132 °C.

In the case of `CCSc1c2ccccc2c(C=O)c2ccccc12`, the melting point fell in the range of 74 to 75.5 °C.

With `COc1cc(CCC(=O)Nc2nc3ccccc3s2)ccc1C(=O)/C=C/C(=O)O`, the melting point was in the range of 260 to 261 °C.

The compound `COc1ccc2cc(C(=O)Oc3ccc(Cl)cn3)c(=O)oc2c1` registered a melting point of 248 to 250 °C.

`Nc1ccc2c(c1)CC(=O)c1ccccc1O2` registered a melting point of 116 to 117 °C.

In the case of `CNS(=O)(=O)c1ccc(N2CCC(C(=O)OC)=Cc3cc(Br)ccc32)cc1`, the melting point fell in the range of 201 to 204 °C.

As to `CC(=O)N1CCN=C1c1ccc(NC(=O)C2=Cc3ccccc3OCC2)cc1`, the melting point lay in the range of 222 to 224 °C.

`O=c1[nH]c(CCCN2CCCC2)cc2c(O)cccc12` returned a melting point of 222 to 225 °C.

`C=CCNC(=O)[C@H]1CN(c2ccc(N3CCOCC3)c(F)c2)C(=O)O1` came in with a melting point of 167 to 169 °C.

`Nc1nc2c(Cc3ccccn3)c[nH]c2c(=O)[nH]1`: the melting point was in the range of 280 to 282 °C.

Turning to `Cc1nnc(C(O)CCCCCCOc2ccc(OCc3ccccc3)cc2)o1` (stereo not given), the melting point lay in the range of 98 to 100 °C.

`CS(=O)(=O)NC(=O)c1cccc(-c2ccc(Cl)c(C(=O)NCC34CC5CC(CC(C5)C3)C4)c2)n1` gave a melting point of 160 to 162 °C.

As for `Cc1c(NC(=O)c2ccc(C#CC3(O)CCC3)cc2)ccc2cc(CNCC(C)C)n(C)c12`, the melting point lay in the range of 222 to 223 °C.

The compound `Cc1cc(C)c2c(c1)Cc1ccccc1S2(=O)=O` came in with a melting point of 103 to 105 °C.

In turn, `O=C(c1ccccc1)c1cc(C(F)(F)F)ccc1NC=C[N+](=O)[O-]` had a melting point of 196 to 198 °C.

As to `O=C1c2cc(F)ccc2CCc2cccnc21`, the melting point was 78 to 81 °C.

In turn, `O=[N+]([O-])c1ccc2oc(-c3cccs3)nc2c1` showed a melting point of 186 to 188 °C.

`Oc1ccc(Cl)c(-n2ccnc2)c1` returned a melting point of 204 to 205 °C.

`CC1(C)NC(=O)N(c2ccc([N+](=O)[O-])c(C(F)(F)F)c2)C1=N`: the melting point was 168 °C.

As for `COc1ccc(C2=C(c3ccc(C=CC(=O)O)cc3)c3ccc(OC)cc3CC2)cc1`, the melting point came to 206 °C.

The compound `O=C1c2ccccc2C(=O)N1CCc1ccc2c(c1)OCO2` had a melting point of 139 to 140 °C.

The compound `COC(=O)c1cc(Cl)cnc1N` had a melting point of 139 to 140 °C.

Turning to `Cn1nc(C(F)(F)F)nc1NCCCCOc1cccc(CN2CCCCC2)c1`, the melting point came to 70 °C.

The compound `COCC(=O)Nc1cccc(-c2ccnc(NCCc3ccc(OC)c(OC)c3)n2)c1` registered a melting point of 140 to 141 °C.

The compound `O=C(Nc1ccc(Oc2ccc(Cl)cc2)nc1)N1CCc2ccccc2CC1` had a melting point of 135 to 137 °C.

For the compound `Cc1nc2cc(Cl)ccc2c(=O)n1CCc1ccccc1`, the melting point is 133 to 135 °C.

Consider `O=c1c(CCCc2ccncc2)cc2cccnc2n1-c1ccc2nonc2c1`, for which the melting point is 192 to 194 °C.

For `CCSc1cc2c(c(C(=O)O)c1)OCCO2`, the melting point lay within 153 to 154 °C.

Take `COC(=O)c1cnccc1SCc1ccc(OC)cc1`: the melting point was in the range of 108 to 110 °C.

The compound `Cc1ccc(N2CCN(Cc3ccc4c(c3)NC(=O)CO4)CC2)cc1` came in with a melting point of 209 to 212 °C.

On to `Cc1c(F)cc2[nH]c(=O)c(=O)[nH]c2c1[N+](=O)[O-]`, for which the melting point lay within 308 to 311 °C.

On to `NC(=O)C1CCc2ccccc21` (stereo not given), for which the melting point lay within 151 to 154 °C.

In the case of `COC(=O)[C@H]1N[C@@H](c2cccnc2)[C@@H]([N+](=O)[O-])[C@@H]1[C@@H](OCc1ccccc1)C(C)C`, the melting point was in the range of 70 to 71 °C.

Turning to `OCc1ccc(-c2nn(Cc3ccccc3)c3ccccc23)cc1`, the melting point lay within 110 to 112 °C.

Take `CCN1C(=O)C(C)(C)C(=O)N(C)c2cc(CN(CCn3ccc4sccc4c3=O)Cc3cc(C)nn3C)ccc21`: the melting point was in the range of 144 to 146 °C.

In the case of `CCCCCCCCCNC(=O)CCC(=O)O`, the melting point was in the range of 114 to 116 °C.

The compound `Cc1c(C(=O)c2ccc(Br)c3ccccc23)c2cccc(C(F)(F)F)c2n1CCN1CCOCC1` registered a melting point of 160 °C.

The record behind these values is a melting point compilation (Tetko et al.; mined from patent text by program, amines drawn as free bases though some values may be those of a salt).
